Consider seven compounds from PubChem BioAssay (NCI).

Test systems include CAKI-1 renal; HT29 colon; HOP-92 NSCLC; NCI-H23 lung; HL-60(TB) leukemia; HCT-15 colon; OVCAR-3 ovarian; RPMI-8226 leukemia; K-562 leukemia.
What all share (assay): NCI tumour cell line growth inhibition, 48 h

Values joined by “and” are separate entries in the source; they are usually repeats but may differ in a detail not shown here. Equal values may be shown once.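 Growth conditions: 96-well plates. Treatment: test compound, 48 hours, 5 concentrations. Analysis: linear interpolation between bracketing concentrations; unreached endpoints set to highest concentration. Abbreviation: GI50, concentration required for 50% inhibition of growth. TGI marks complete inhibition of growth.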 Bounds are passed on as bounds.

Turning to `CO[C@@H]1[C@H](OC(=O)NC(=O)CCl)CC[C@]2(CO2)[C@H]1[C@@]1(C)O[C@@H]1CC=C(C)C`, the GI50 in the test with CAKI-1 renal is 29.6 µM; in the test on HT29 colon, 8.62 µM and 20.5 µM; in the test on NCI-H23 lung, 2.99 µM and 5.94 µM; in the test on HCT-15 colon, 5.15 µM; in the test on OVCAR-3 ovarian, 8.68 µM; with RPMI-8226 leukemia, 5.73 µM and 6.14 µM. Also, the GI50 in the test on K-562 leukemia is 32.7 µM. Besides, the TGI in the test with CAKI-1 renal was 25.7 µM and 59.1 µM; in the test on HT29 colon, 27.5 µM and 88.9 µM; with HOP-92 NSCLC, 38.5 µM; in the test with NCI-H23 lung it was 37 µM and 30.8 µM; with HL-60(TB) leukemia it was 14.8 µM; with HCT-15 colon, 56.1 µM and 35.7 µM. Further, the TGI in the test on OVCAR-3 ovarian is 21.3 µM and 30.7 µM; in the test with RPMI-8226 leukemia, 32.9 µM and 51.4 µM; in the test on K-562 leukemia it was 58.5 µM and 129 µM.
Regarding `Cc1nc(NC(=O)CCCN2C(=O)c3cccc4cccc(c34)C2=O)sc1C(=O)Nc1cc(C(=O)NCCCN(C)C)n(C)c1`, the GI50 in the test with CAKI-1 renal, in the test on HT29 colon, in the test on HOP-92 NSCLC, in the test with NCI-H23 lung, with HL-60(TB) leukemia and with HCT-15 colon was above 100 µM throughout. Moreover, the GI50 in the test on OVCAR-3 ovarian, in the test on RPMI-8226 leukemia and in the test with K-562 leukemia was above 100 µM each time. Moreover, the TGI with CAKI-1 renal, in the test with HT29 colon, in the test with HOP-92 NSCLC, with NCI-H23 lung, in the test with HL-60(TB) leukemia and in the test with HCT-15 colon was above 100 µM each time. The TGI in the test with OVCAR-3 ovarian, in the test with RPMI-8226 leukemia and in the test on K-562 leukemia was above 100 µM in each case.
Turning to `COc1ccccc1CNCCCN1C(=O)c2ccc3c4c(ccc(c24)C1=O)C(=O)N(CCCNCCCN)C3=O`, the GI50 with CAKI-1 renal is 1.11 µM; in the test with HT29 colon it was 0.159 µM; in the test with HOP-92 NSCLC, 0.971 µM; in the test with NCI-H23 lung, 0.31 µM; in the test with HL-60(TB) leukemia it was 0.744 µM; in the test on HCT-15 colon, 0.886 µM. Also, the GI50 in the test with OVCAR-3 ovarian is 0.324 µM; with RPMI-8226 leukemia, 0.581 µM; with K-562 leukemia, 0.216 µM. Besides, the TGI came to 5.77 µM in the test with CAKI-1 renal; 1.54 µM in the test with HT29 colon; 4.88 µM with HOP-92 NSCLC; 2.55 µM with NCI-H23 lung; 2.78 µM in the test with HL-60(TB) leukemia; 3.76 µM in the test on HCT-15 colon. Also, the TGI in the test on OVCAR-3 ovarian was 1.42 µM; in the test on RPMI-8226 leukemia, 4.88 µM; with K-562 leukemia it was 3.76 µM.
As for `Cc1ccc(C)c(-c2csc(Nc3ccc(C)c(C)c3)n2)c1`, the GI50 with CAKI-1 renal is above 100 µM; with HT29 colon it was above 100 µM; in the test with HOP-92 NSCLC it was 29 µM; with NCI-H23 lung, 65.7 µM; in the test on HL-60(TB) leukemia, above 100 µM; with HCT-15 colon, 4.08 µM. Moreover, the results for the GI50 in the test with OVCAR-3 ovarian, in the test on RPMI-8226 leukemia and in the test on K-562 leukemia were 66.3 µM, above 100 µM and above 100 µM, respectively. The TGI with CAKI-1 renal, in the test with HT29 colon, with HOP-92 NSCLC, in the test on NCI-H23 lung, in the test on HL-60(TB) leukemia and with HCT-15 colon was above 100 µM throughout. The TGI with OVCAR-3 ovarian, with RPMI-8226 leukemia and with K-562 leukemia was above 100 µM each time.
Take `O=C(COc1ccccc1)NS(=O)(=O)c1ccccc1`: the TGI with CAKI-1 renal, with HT29 colon, with HOP-92 NSCLC, in the test with NCI-H23 lung, with HL-60(TB) leukemia and in the test with HCT-15 colon was above 100 µM in each case. For the same compound, the TGI in the test with OVCAR-3 ovarian, with RPMI-8226 leukemia and in the test on K-562 leukemia was above 100 µM each time.
`COc1ccc(NC(=O)c2sc3nc(C)c(C(O)c4ccccc4)cc3c2N)cc1` (centres undefined): the GI50 in the test on CAKI-1 renal was 3.52 µM; with HT29 colon, 2.81 µM; in the test with HOP-92 NSCLC, 12.7 µM; in the test on NCI-H23 lung, 3.48 µM; in the test with HL-60(TB) leukemia it was 2.76 µM; in the test on HCT-15 colon, 1.44 µM. The values for the GI50 with OVCAR-3 ovarian, with RPMI-8226 leukemia and in the test with K-562 leukemia were 2.48 µM, 2.4 µM and 1.01 µM, respectively. Besides, the TGI was above 100 µM in the test with CAKI-1 renal; 88.8 µM in the test on HT29 colon; above 100 µM in the test on HOP-92 NSCLC; above 100 µM with NCI-H23 lung; 10.3 µM in the test with HL-60(TB) leukemia; above 100 µM in the test on HCT-15 colon. The TGI was 13.8 µM in the test with OVCAR-3 ovarian, 14.4 µM with RPMI-8226 leukemia and above 100 µM with K-562 leukemia.
With `COc1cc(C(=O)c2cc3c(cc2C)OCO3)cc(OC)c1OC`, the GI50 with CAKI-1 renal was 0.208 µM; with HT29 colon it was 0.105 µM; with HOP-92 NSCLC it was 0.0855 µM; with NCI-H23 lung, 0.319 µM; in the test with HL-60(TB) leukemia, 0.0329 µM; in the test on HCT-15 colon, 0.0528 µM. Also, the GI50 in the test on OVCAR-3 ovarian was 0.0765 µM; in the test on RPMI-8226 leukemia, 0.284 µM; in the test on K-562 leukemia, 0.051 µM. Moreover, the TGI in the test on CAKI-1 renal was above 100 µM; with HT29 colon, above 100 µM; in the test with HOP-92 NSCLC it was 48.6 µM; in the test with NCI-H23 lung, above 100 µM; in the test on HL-60(TB) leukemia it was 0.152 µM; in the test with HCT-15 colon it was above 100 µM. Besides, the TGI was above 67.3 µM in the test on RPMI-8226 leukemia and above 100 µM in the test with K-562 leukemia.
